This passage reports IC50 results from patent US20240254129A1, “HETEROCYCLIC COMPOUNDS AND USES THEREOF” (Kumquat Biosciences Inc., priority 2021, published 2024).

Experiment [1] has as its target GST-tagged K-Ras mutant / His-tagged hSOS1 (Homo sapiens, UniProt P01116). The experiment can be described thus: HTRF assay, K-Ras mutant / SOS1 interaction. The class given is binding. The settings on record: read-out: IC50 against mutant Kras. The source says:
(§1) This assay can be also used to assess a selective inhibition of a mutant Ras protein relative to a wildtype, or relative to a different mutant Ras protein. For example, the equilibrium interaction of wildtype Kras or K-Ras mutant (e.g., wildtype or a mutant thereof including those mentioned in Example 6) with SOS1 (e.g., hSOS1) can be assessed as a proxy or an indication for a subject compound's ability to bind and inhibit Ras protein. HTRF assay detects from (i) a fluorescence resonance energy transfer (FRET) donor (e.g., antiGST-Europium) that is bound to GST-tagged K-Ras mutant to (ii) a FRET acceptor (e.g., anti-6His-XL665) bound to a His-tagged hSOS1.
(§2) The assay buffer can contain ˜5 mM HEPES pH 7.4, ˜150 mM NaCl, ˜ 1 mM DTT, 0.05% BSA and 0.0025% (v/v) Igepal. A Ras working solution is prepared in an assay buffer containing typically a suitable amount of the protein construct (e.g., GST-tagged K-Ras mutant) and the FRET donor (e.g., antiGST-Eu(K) from Cisbio, France). A SOS1 working solution is prepared in an assay buffer containing suitable amount of the protein construct (e.g., His-hSOS1) and the FRET acceptor (e.g., anti-6His-XL665 from Cisbio, France). A suitable amount of the protein construct will depend on the range of activity or range of IC50 values being detected or under investigation. For detecting IC50 within a range of 500 nM, the protein constructs of the same range of molarity can be utilized.
(§3) A fixed volume of DMSO with or without test compound is transferred into a 384-well plate. Ras working solution is added to all wells of the test plate. SOS1 working solution is added to all wells except for those that are subsequently filled the inhibitor control solution. Upon incubation for about 10 minutes or longer, the fluorescence is measured with a M1000Pro plate reader (Tecan) using HTRF detection (excitation 337 nm, emission 1: 620 nm, emission 2: 665 nm). Compounds are tested in duplicates at different concentrations (for example, 10 μM, 2.5 μM, 0.63 μM, 0.16 μM, 0.04 µM, 0.01 μM test compound). The ratiometric data (i.e., emission 2 divided by emission 1) is used to calculate IC50 values against Ras using GraphPad Prism (GraphPad software). Following this general procedure, samples were tested with or without a subject compound disclosed herein including compounds exemplified in Table 1 to assess their abilities to inhibit K-Ras signaling or their respective IC50 values against a given Ras protein (e.g., a given mutant K-Ras) of interest.
On the technique in general: In TR-FRET formats the signal depends on donor and acceptor labels being close together.

A further experiment deals with T1, wildtype Kras / hSOS1 (Homo sapiens, UniProt P01116).
T1 construct: made in house; host or cells: E. coli BL21 (DE3)
T1 sequence (P01116 1-188 isoform P01116-2): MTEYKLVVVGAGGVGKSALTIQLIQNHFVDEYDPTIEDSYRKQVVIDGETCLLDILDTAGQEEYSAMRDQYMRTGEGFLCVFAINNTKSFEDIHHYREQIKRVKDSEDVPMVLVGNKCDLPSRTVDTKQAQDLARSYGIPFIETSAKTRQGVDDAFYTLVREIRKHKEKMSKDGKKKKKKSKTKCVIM
Nature of the experiment: HTRF assay, wildtype Kras / SOS1 interaction. The settings on record: read-out: IC50 against wildtype Kras. The class given is binding.
Text: as §1, §2, §3

Where [2] appears, read: compound nos. 102-196, general methodology of example 5.

pIC50: −log10 of the molar value. Like-named read-outs stand apart in the source and are kept apart here.

GST-tagged K-Ras mutant / His-tagged hSOS1, sequence (P01116 whole entry G12D, form open): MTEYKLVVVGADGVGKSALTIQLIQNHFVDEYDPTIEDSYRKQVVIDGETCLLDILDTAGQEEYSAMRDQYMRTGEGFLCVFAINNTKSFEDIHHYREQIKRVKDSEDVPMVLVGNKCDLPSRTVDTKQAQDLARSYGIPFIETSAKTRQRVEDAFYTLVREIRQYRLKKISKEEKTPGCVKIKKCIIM

As to `CN1CCC[C@H]1COc1nc(N2CCCCC(C(N)=O)C2)c2cc(Cl)c(-c3cccc4sc(N)nc34)c(F)c2n1` (stereo partly drawn) [Compound 455, 1-(7-(2-aminobenzo[d]-thiazol-4-yl)-6-chloro-8-fluoro-2-(((S)-1-methylpyr-rolidin-2-yl)methoxy)quin-zolin-4-yl)azepane-3-carboxamide], the pIC50 (in experiment [1] (compound nos. 401-703); at wildtype Kras / hSOS1 (compound nos. 401-703)) was above 6.30 in each case.

For `Nc1ccc(C2CC2)c(-c2ccc3c(N4CC5CCC(C4)N5)nc(OC[C@@]45CCCN4C[C@H](F)C5)nc3c2F)n1` [Compound 458, 6-(4-(3,8-diazabicyclo-[3.2.1]octan-3-yl)-8-fluoro-2-(((2R,7aS)-2-fluorotetra-hydro-1H-pyrrolizin-7a(5H)-yl)methoxy)quinazolin-7-yl)-5-cyclopropylpyridin-2-amine], the results for the pIC50 (in experiment [1] (compound nos. 401-703); at wildtype Kras / hSOS1 (compound nos. 401-703)) were below 6.30 and above 6.30, respectively.

Take `Nc1nc2c(-c3c(Cl)cc4c(N5CC6CCC(C5)N6)nc(OC[C@@]56CCCN5C[C@H](F)C6)nc4c3F)cc(Cl)cc2s1` [Compound 601, 4-(4-(3,8-diazabicyclo-[3.2.1]octan-3-yl)-6-chloro-8-fluoro-2-(((2R,7aS)-2-fluorotetrahydro-1H-pyrrol-izin-7a(5H)-yl)methoxy)-quinazolin-7-yl)-6-chloro-benzo[d]thiazol-2-amine]: the pIC50 (usually the IC50 on a negative log10 scale, so that one unit is a factor of ten) was above 6.30 in experiment [1] (compound nos. 401-703) and below 6.30 on wildtype Kras / hSOS1 (compound nos. 401-703).

Take `Fc1c(N2CCCc3ccccc32)ccc2c(N3CCCCCC3)nc(OCC34CCCN3CCC4)nc12` [Compound 580, 4-(azepan-1-yl)-7-(3,4-dihydroquinolin-1(2H)-yl)-8-fluoro-2-((tetrahydro-1H-pyrrolizin-7a(5H)-yl)meth-oxy)quinazoline]: the pIC50 (in experiment [1] (compound nos. 401-703); on wildtype Kras / hSOS1 (compound nos. 401-703)) was below 6.30 each time.

With `CN1CCCC1CCn1nc(N2CC3CCC(C2)N3)c2ccc(-c3ccc(F)c4sc(N)nc34)c(F)c2c1=O` (stereo not drawn) [Compound 420, 7-(2-amino-7-fluorobenzo-[d]thiazol-4-yl)-4-(3,8-diazabicyclo[3.2.1]octan-3-yl)-8-fluoro-2-(2-(1-methyl-pyrrolidin-2-yl)ethyl)phthal-azin-1(2H)-one], the pIC50 in experiment [1] (compound nos. 401-703) is below 6.30; at wildtype Kras / hSOS1 (compound nos. 401-703), above 6.30.

In the case of `N#Cc1csc2cccc(-c3c(Cl)cc4c(N5CC6CCC(C5)N6)nc(OC[C@@]56CCCN5C[C@H](F)C6)nc4c3F)c12` [Compound 674, 4-(4-(3,8-diazabicyclo-[3.2.1]-octan-3-yl)-6-chloro-8-fluoro-2-(((2R,7aS)-2-fluorotetrahydro-1H-pyrrol-izin-7a(5H)-yl)methoxy)-quinazolin-7-yl)benzo[b]-thiophene-3-carbonitrile], the pIC50 in experiment [1] (compound nos. 401-703) is above 6.30; at wildtype Kras / hSOS1 (compound nos. 401-703), below 6.30.

For `Nc1cccc(-c2c(Cl)cc3c(N4CC5CCC(C4)N5)nc(OCC45CCCN4CCC5)nc3c2F)c1F` [Compound 440, 3-(4-(3,8-diazabicyclo-[3.2.1]-octan-3-yl)-6-chloro-8-fluoro-2-((tetrahydro-1H-pyrrolizin-7a(5H)-yl)meth-oxy)quinazolin-7-yl)-2-fluoroaniline], the values for the pIC50 (in experiment [1] (compound nos. 401-703); at wildtype Kras / hSOS1 (compound nos. 401-703)) were below 6.30 and above 6.30, respectively.

Regarding `CNCCCN1CCCN(c2nc(OCC34CCCN3CCC4)nc3c(F)c(-c4ccc(F)c5sc(N)nc45)c(Cl)cc23)CC1` [Compound 640, 4-(6-chloro-8-fluoro-4-(4-(3-(methylamino)propyl)-1,4-diazepan-1-yl)-2-((tetrahydro-1H-pyrrolizin-7a(5H)-yl)methoxy)quin-azolin-7-yl)-7-fluorobenzo-[d]thiazol-2-amine], the values for the negative logarithm of the IC50 (pIC50) (in experiment [1] (compound nos. 401-703); on wildtype Kras / hSOS1 (compound nos. 401-703)) were above 6.30 and below 6.30, respectively.

For the compound `C#Cc1cccc2cc(O)cc(-c3ccc4c(N5CCNCC(F)(F)C5)nc(OC[C@@]56CCCN5C[C@H](F)C6)nc4c3F)c12` [Compound 609, 4-(4-(6,6-difluoro-1,4-diazepan-1-yl)-8-fluoro-2-(((2R,7aS)-2-fluorotetra-hydro-1H-pyrrolizin-7a(5H)-yl)methoxy)quin-azolin-7-yl)-5-ethynylnaph-thalen-2-ol], the pIC50 in experiment [1] (compound nos. 401-703) is above 6.30; at wildtype Kras / hSOS1 (compound nos. 401-703) it was below 6.30.

On to `CN1CCC[C@H]1COc1nc(N2CCCC(n3ccnc3)CC2)c2cc(Cl)c(-c3cccc4sc(N)nc34)c(F)c2n1` (stereo partly drawn) [Compound 651, 4-(4-(4-(1H-imidazol-1-yl)-azepan-1-yl)-6-chloro-8-fluoro-2-(((S)-1-methyl-pyrrolidin-2-yl)methoxy)-quinazolin-7-yl)benzo[d]-thiazol-2-amine], for which the negative-log IC50 (pIC50) in experiment [1] (compound nos. 401-703) was above 6.30; at wildtype Kras / hSOS1 (compound nos. 401-703), below 6.30.

Turning to `Nc1nc2c(C3CCc4c(nc(OC[C@@]56CCCN5C[C@H](F)C6)nc4N4CCNCC(F)(F)C4)C3)cccc2s1` (stereo partly drawn) [Compound 509, 4-(4-(6,6-difluoro-1,4-diazepan-1-yl)-2-(((2R,7aS)-2-fluorotetrahydro-1H-pyrrolizin-7a(5H)-yl)meth-oxy)-5,6,7,8-tetrahydro-quinazolin-7-yl)benzo[d]-thiazol-2-amine], the pIC50 (in experiment [1] (compound nos. 401-703); at wildtype Kras / hSOS1 (compound nos. 401-703)) was below 6.30 each time.

As to `CN1CCC[C@H]1COc1nc(N2CCCCC(F)(F)C2)c2cc(Cl)c(-c3ccc(F)c4sc(N)nc34)c(F)c2n1` [Compound 108, 4-(6-chloro-4-(3,3-difluoro-azepan-1-yl)-8-fluoro-2-(((S)-1-methylpyrrolidin-2-yl)methoxy)quinazolin-7-yl)-7-fluorobenzo[d]thiazol-2-amine], the pIC50 (in experiment [1] (setting [2]); on wildtype Kras / hSOS1 (setting [2])) was above 6.30 each time.

For `Nc1nc2c(-c3c(Cl)cc4c(N5C[C@H]6CC[C@@H](C5)[C@@H]6N)nc(OCC56CCCN5CCC6)nc4c3F)ccc(F)c2s1` [Compound 413, 4-(4-((1R,5S,8s)-8-amino-3-azabicyclo[3.2.1]octan-3-yl)-6-chloro-8-fluoro-2-((tetra-hydro-1H-pyrrolizin-7a(5H)-yl)methoxy)quinazolin-7-yl)-7-fluorobenzo[d]thiazol-2-amine], the pIC50 (in experiment [1] (compound nos. 401-703); at wildtype Kras / hSOS1 (compound nos. 401-703)) was above 6.30 each time.

`Fc1c(-c2cccc3ccsc23)c(Cl)cc2c(N3CC4CCC(C3)N4)nc(OC[C@@]34CCCN3C[C@H](F)C4)nc12` [Compound 560, 7-(benzo[b]thiophen-7-yl)-4-(3,8-diazabicyclo[3.2.1]-octan-3-yl)-6-chloro-8-fluoro-2-(((2R,7aS)-2-fluorotetrahydro-1H-pyrrol-izin-7a(5H)-yl)methoxy)-quinazoline]: the pIC50 (in experiment [1] (compound nos. 401-703); on wildtype Kras / hSOS1 (compound nos. 401-703)) was below 6.30 each time.

For `Cc1ncc(Oc2nc(N3CCCCCC3)c3cc(Cl)c(-c4cccc5sc(N)nc45)c(F)c3n2)cn1` [Compound 461, 4-(4-(azepan-1-yl)-6-chloro-8-fluoro-2-((2-methylpyrim-idin-5-yl)oxy)quinazolin-7-yl)benzo[d]thiazol-2-amine], the pIC50 was below 6.30 in experiment [1] (compound nos. 401-703) and above 6.30 on wildtype Kras / hSOS1 (compound nos. 401-703).

On to `Nc1nc2c(-c3c(Cl)cc4c(N5CC6CNCC(C5)N6)nc(OC[C@@]56CCCN5C[C@H](F)C6)nc4c3F)ccc(F)c2s1` [Compound 639, 4-(4-(3,7,9-triazabicyclo-[3.3.1]nonan-3-yl)-6-chloro-8-fluoro-2-(((2R,7aS)-2-fluorotetrahydro-1H-pyrrol-izin-7a(5H)-yl)methoxy)-quinazolin-7-yl)-7-fluoro-benzo[d]thiazol-2-amine], for which the negative-log IC50 (pIC50) is above 6.30 in experiment [1] (compound nos. 401-703) and below 6.30 at wildtype Kras / hSOS1 (compound nos. 401-703).

With `Cc1ccnc(C(C)C)c1-n1c(=O)nc(N2CCNCC(F)(F)C2)c2cc(F)c(-c3cccc4sc(N)nc34)nc21` [Compound 111, 7-(2-aminobenzo[d]thiazol-4-yl)-4-(6,6-difluoro-1,4-diazepan-1-yl)-6-fluoro-1-(2-isopropyl-4-methylpyr-idin-3-yl)pyrido[2,3-d]pyr-imidin-2(1H)-one], the pIC50 (in experiment [1] (setting [2]); on wildtype Kras / hSOS1 (setting [2])) was below 6.30 throughout.

`Fc1c(N2CCCCc3ccccc32)ccc2c(N3CCCCCC3)nc(OCC34CCCN3CCC4)nc12` [Compound 548, 1-(4-(azepan-1-yl)-8-fluoro-2-((tetrahydro-1H-pyrrol-izin-7a(5H)-yl)methoxy)-quinazolin-7-yl)-2,3,4,5-tetrahydro-1H-benzo[b]-azepine]: the pIC50 (in experiment [1] (compound nos. 401-703); on wildtype Kras / hSOS1 (compound nos. 401-703)) was below 6.30 in each case.
